Results on six molecules are retold here after article PMC12077799, “Fragment-based drug discovery for transthyretin kinetic stabilisers using a novel capillary zone electrophoresis method” (PLOS One, 2025).

The target of assay [1] is T1, Human transthyretin (TTR) thyroxine binding sites (Homo sapiens, UniProt P02766).
T1 construct: purchased SCIPAC (Sittingbourne, Kent, UK) P171-1
As to the kind of experiment: TTR CZE Free Probe Peak Height Restoration (FPPHR) assay, 8-ANS displacement. The following applies: for FPPHR % tested at 10 µM: compound 10 µM in Running Buffer; for FPPHR % tested at 10 µM / FPPHR % at 50 μM: 10% minimum for a binder; for FPPHR % at 50 μM: compound 50 μM in Running Buffer. Here is the method:
CZE assays development and fragment screening were performed on a Beckman P/ACE MDQ capillary electrophoresis system (Beckman Coulter Inc., Brea, CA) operated by 32 Karat™ software. All capillaries (Polymicro Technologies, Phoenix, AZ) used were internally coated with polyvinyl alcohol and of around 30 cm in length, 75 microns in internal diameter. Capillary temperature was maintained at 20 °C by recirculating fluorinated fluid coolant during electrophoresis. Sample trays and buffer trays temperature were maintained at 4°C and ambient respectively. For every electrophoretic run, the capillary was pressure rinsed and prefilled with electrophoresis buffer also known as background electrolyte (termed as Running Buffer hereafter) before injection. After each electrophoretic run, the capillary was rinsed with Running Buffer and H2O by pressure (20 psi for 1 minute). Three Running Buffers (RB), A: 20 mM Tris pH 7.5, 1 mM KCl, 1.62 mM NaCl; B: 20 mM HEPES pH 7.0, 2 mM CaCl2 and C: 20 mM HEPES pH 7.0, 2 mM CaCl2, 1% DMSO were used. All CE traces were analysed by 32Karat™ Software with a built-in automatic peak integration algorithm.
Control 1 Inject Buffer (IB) containing 30 μM 8-ANS was prepared by mixing 1 μL of 3 mM 8-ANS DMSO stock with 99 μL of Running Buffer B in a 0.2 mL PCR tube. Control 2 Inject Buffer was prepared by mixing 1μL of 3 mM 8-ANS DMSO stock with 20 μL of 100 μM tetrameric TTR stock in Running Buffer B and 79 μL of Running Buffer B. The final concentrations (f/c) were 8-ANS 30 μM, TTR 20 μM and 1% DMSO v/v.
The maximum Free Probe Peak Height (Control 1 Peak Height) was determined by Outlet Injection (see Fig 1) of Control 1 with an injection pressure of 0.5 psi for 5 seconds (equivalent to ≈ 20–30 nL). An identical injection of Control 2 provides the minimum Free Probe Peak Height (Control 2 Peak Height) enabling calculation of % of bound and unbound, i.e., free 8-ANS. To determine the 8-ANS peak height in Control 1 and Control 2, the capillary was prefilled with Buffer C and electrophoresis carried out at 10 kV (Normal Polarity, Fig 1) with UV monitoring at 230 nm. For displacement analysis, ligand DMSO stock was diluted in Buffer B and used to fill the capillary as the Running Buffer. Electrophoresis commenced after injection of Control 2, thus the injected 8-ANS-TTR complex migrates inside a capillary filled with the test ligand. The observed 8-ANS peak height is defined as Sample Peak Height and the displaced 8-ANS can be calculated as:
\% of Free Probe Peak Height Restoration= Sample Peak Height−Control 2 Peak Height/Control 1 Peak Height−Control 2 Peak Height

The target of assay [2] is T1, Human transthyretin (TTR) thyroxine binding sites. The assay is described as above. The note with it: 30 μM 8-ANS with 20 μM TTR.
For assay [3], the target named is TTR thyroxine binding sites. The following applies: cited from earlier work.
Assay [4] deals with T2, Human transthyretin (TTR) (Homo sapiens, UniProt P02766).
T2 construct: purchased SCIPAC (Sittingbourne, Kent, UK) P171-1
As to the kind of experiment: Co-crystallisation of TTR-ligand complex, X-ray hit confirmation. It is filed as binding. The following applies: for Confirmed by X-ray: fragment seen in ligand-omitted difference density at >= 2σ in one or both binding sites, full or partial density. Here is the method: Crystals were grown by vapor diffusion using a published crystallisation cocktail (100 mM HEPES pH 7.5, 200 mM CaCl2, 28% v/v PEG400) at 21 °C [29]. The hanging drop contained 1 μL of crystallisation cocktail, 1 μL of diluted ligand and 1 μL of TTR protein solution (85 μM). […] Crystals were harvested and flash cooled in a N2 cryostream or dipped into liquid ethane without cryoprotectant. Data was collected at Diamond Light Source (Oxon, UK) beamline I24, I04 or I04-1 (Pilatus 6M or ADSC Q315) or the European Synchrotron Radiation Facility (ESRF, Grenoble, France) beamline ID29 (Pilatus 6M-F) or in-house (Bruker X8 Diffractometer with APEXII CCD detector). Crystal unit cell was initially indexed by software MOSFLM [30] and LABELIT [31] within the EDNA [32] automatic data processing workflow. Diffraction image integration was performed by XDS [33] and reflection intensities were scaled by SCALA [34] or by PROTEUM2 if collected in-house. Phases were obtained by molecular replacement method using PHASER [35], 1DVQ from the Protein Data Bank (PDB) was used as the search model. Atomic positions of the initial model were refined by REFMAC5 [36]. Model building and ligand fitting was completed using COOT [37]. Model graphics were generated using CCP4MG [38]. Crystallographic statistics of all structures can be found in S4 Table.

The target of the next assay is T3, TTR (Homo sapiens, UniProt P02766).
T3 construct: purchased SCIPAC (Sittingbourne, Kent, UK) P171-1
The assay is described as follows: Isothermal titration calorimetry (ITC). It is filed as binding. The following applies: for Kd: 25 °C, PBS pH 7.8, 3% DMSO. Here is the method: All ITC experiments were conducted on an iTC200 calorimeter (GE Healthcare), and the settings were 25 °C, stir at 1000 RPM, 1–2 μL injection spaced with 100–150 seconds, reference power: 6 μcal/sec. Isotherms were fitted using ORIGIN 7 software (OriginLab, MA, USA). To prepare TTR ITC protein solution (5 mL), purified and freeze-dried human TTR was weighted and dissolved in 310 μL of pure water. The reconstituted protein solution was then desalted by spin column (Bio-Rad, Bio-Gel P6) and the eluted volume was transferred to a 15mL falcon tube. The protein solution was further diluted with 10x Phosphate Buffered Saline (PBS, 500 μL), DMSO (150 μL) and water, (f/c: 4.3 mM Na2HPO4, 137 mM NaCl, 2.7 mM KCl, 1.47 mM KH2PO4, 3% DMSO v/v, TTR 19.35–25 μM, pH 7.8). UV A260/280 was measured to obtain the actual protein concentration using a calculated extinction coefficient of 18450 M^-1 cm^-1. To prepare ligand ITC solution (1 mL), 30 μL of ligand stock in DMSO was diluted with 10x PBS (100 μL) and water (f/c: 4.3 mM Na2HPO4, 137 mM NaCl, 2.7 mM KCl, 1.47 mM KH2PO4, 3% DMSO v/v, Ligand 280–600 μM, pH 7.8).

Assay [5] addresses T4, TTR in undiluted normal human reference plasma (Homo sapiens, UniProt P02766).
T4 construct: The TTR in plasma was immunoprecipitated by sheep anti-human prealbumin polyclonal antibody; tissue Precision Biologic Inc., Nova Scotia, Canada
As to the kind of experiment: 125I-T4 displacement assay in neat normal human plasma. It counts as binding. The note with it: for IC50: neat normal human plasma, 4-parameter logistic fit. From the text: The assay was adapted from one described previously. Briefly, test ligand and ^125I-T4 (Perkin Elmer Inc., Waltham, MA) were mixed with undiluted normal human reference plasma (Precision Biologic Inc., Nova Scotia, Canada). The TTR in plasma was immunoprecipitated by sheep anti-human prealbumin polyclonal antibody (The Binding Site Group Ltd., Birmingham, UK). The immunoprecipitate was washed with buffer and their radioactivity measured with a 2470 WIZARD automatic gamma counter (Perkin Elmer Inc., Waltham, MA). […] Percentage of total radioligand binding for samples of different ligand concentration was then calculated as follows: […]
To calculate IC50 values, percentage of total radioligand binding at different concentration points were entered in SigmaPlot™ 11.0. Titration curves were done in triplicates with a minimum of 5 data points fitted by 4-Parameter Logistic Function.

[6] abbreviates: N = number of non-hydrogen atoms.
The mark [7] stands for this setting: read-out: Mean 125I-T4 IC50 ± SD (N = 3).

Read-outs that look alike come from different tables or passages of the source.

With `O=S(=O)(O)c1cccc2cccc(Nc3ccccc3)c12` [Compound 8-ANS, 8-Anilino-1-Naphthalenesulfonic acid], the “% of 8-ANS bound to TTR, deduced from free 8-ANS peak heights” value in assay [1] (30 μM 8-ANS with 20 μM TTR) is “around 60%”. For the same molecule, the “% of 8-ANS bound to TTR, deduced from free 8-ANS peak areas” value in assay [2] is reported as about 35%. In addition, the Kd was 1.05 µM in assay [3] (read-out: Kd1, 8-ANS at TTR thyroxine binding sites); 4.79 µM in assay [3] (read-out: Kd2, 8-ANS at TTR thyroxine binding sites); 1 to 5 µM in assay [3] (read-out: previously reported Kd values).

Turning to `Cc1n[nH]c(C)c1-c1cccc2cccnc12` [Compound 94320297], in assay [1], the “FPPHR % tested at 10 µM” value is 33.32% tested at 10 µM and the “FPPHR % at 50 μM” value amounted to 59.77%. In assay [4], the “Confirmed by X-ray” value is on record as “Yes 9H7K”. The Kd on TTR (read-out: ITC Kd1 ± SD (N = 3)) turned out to be 0.064 µM. In addition, on TTR (read-out: ITC Kd2 ± SD (N = 3)), the Kd came to 0.91 µM. For the same molecule, on TTR (setting [6]), the “Kd1 LE (Ligand Efficiency, ΔG/N)” value turned out to be 0.58 kcal/mol and the “Kd2 LE (Ligand Efficiency, ΔG/N)” value came to 0.48 kcal/mol. Further, in assay [5] (setting [7]), the IC50 worked out at 18.9 ± 6.14 µM.

As for `Nc1n[nH]c2nccc(-c3ccccc3)c12` [CDS014361], the “FPPHR % at 50 μM” value in assay [1] is recorded as 36.17% tested at 50 µM. Besides, the “Confirmed by X-ray” value in assay [4] is on record as “Yes 9H7L”. For the same molecule, the half-inhibitory concentration (IC50) in assay [5] (setting [7]) came out at 100 ± 11 µM.

Regarding `NS(=O)(=O)c1cc(Cl)cc(Cl)c1` [SFL000006, 3,5-Dichlorobenzenesulphonamide], the “FPPHR % at 300 μM ± SD (N = 3)” value in assay [1] (fragment 300 μM in Running Buffer, injected 30 μM 8-ANS / 20 μM TTR, hit cut-off 10%) is 12.18 ± 6.63 (N = 4) %. The “Confirmed by X-ray” value in assay [4] is “Yes 1 Site, Partial, 9H7A”. In addition, in assay [4] (in words), the “ligand electron density, binding sites occupied in co-crystal structure” value is reported as “only observed in one site”. The “125I-T4 displacement at maximal concentration” value in assay [5] (14.3mM, no plateau reached) was “≈ 60%”. This molecule also registered a 50% inhibitory concentration (IC50) in assay [5] of 8880 ± 3670 µM.

`Cc1n[nH]c(-c2ccnc3ccccc23)n1` [Compound 71575026]: in assay [1], the “FPPHR % tested at 10 µM” value amounted to 17.07% tested at 10 µM. For the same molecule, in assay [4], the “Confirmed by X-ray” value is “Yes 9H7N”. Moreover, the IC50 in assay [5] (setting [7]) was determined as 238 ± 118 µM.

`Nc1nc(-c2cccc3cccnc23)c2cn[nH]c2n1` [Compound 96299361]: the “FPPHR % tested at 10 µM” value in assay [1] was found to be 23.20% tested at 10 µM. For the same molecule, the “Confirmed by X-ray” value in assay [4] was “Yes 9H7M”. The IC50 in assay [5] (setting [7]) was 105 ± 16.8 µM.
